Test results taken from patent US20250388602A1 (Genase Therapeutics B.V., priority 2022, published 2025).
Read-outs that look alike come from different tables or passages of the source.

Legend:
MOLM-13 cells = assay: MOLM-13 cell viability (Assay B), Cell Titer-Glo; type: cell-based; details: Homo sapiens, read-out: IC50 MOLM13 inhibition activity
Description: MOLM-13 cells (an acute myeloid leukemia cell line) were plated in RPMI supplied with 10% FBS and 1% Pen/Strep in 384-well plates at 1,000 cells per well on day 0. On day 1, treatment of the cells with compound (concentration range 10E-5 and 6E-12 M) was initiated in the presence or absence of 100 μM uridine. After 72 hours incubation of the cells with or without test compound, the number of viable cells per well was assessed by Cell Titer-Glo Luminescent Cell Viability Assay (Promega, Madison, WI, USA). […] Each condition was tested in duplicate and the potency of test compounds was determined from two independent experiments.

recombinant human DHODH = recombinant human DHODH (Homo sapiens (Human), UniProt Q02127); assay: DHODH enzyme assay (Assay A), DCIP absorbance; type: biochemical
recombinant human DHODH, sequence (Q02127 whole entry): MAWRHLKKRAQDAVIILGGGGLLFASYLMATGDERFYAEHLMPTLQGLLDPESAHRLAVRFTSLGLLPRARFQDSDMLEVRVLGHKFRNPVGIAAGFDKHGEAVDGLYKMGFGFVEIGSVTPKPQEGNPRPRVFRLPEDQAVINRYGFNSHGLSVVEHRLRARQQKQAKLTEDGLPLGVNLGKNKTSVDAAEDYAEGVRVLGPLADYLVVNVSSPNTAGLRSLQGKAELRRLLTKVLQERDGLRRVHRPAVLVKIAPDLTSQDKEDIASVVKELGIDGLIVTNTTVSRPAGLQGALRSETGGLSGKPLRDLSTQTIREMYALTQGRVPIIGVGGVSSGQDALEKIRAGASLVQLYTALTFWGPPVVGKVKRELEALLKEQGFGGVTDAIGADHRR
Description: Inhibition of human dihydroorotate dehydrogenase (DHODH) by example compounds as described herein was determined using one of two assays as described below.
DHODH enzyme assays were performed with 6 nM recombinant human DHODH (purified essentially as described by Walse et al., Biochemistry, 47, 8929-8936 (2008)). The reaction mixture consisted of 1 mM DL-dihydroorotic acid (#D7003, Sigma-Aldrich), 100 μM 3,4-dimethoxy-5-methyl-p-benzoquinone (#D9150, Sigma-Aldrich), and 100 μM 2,6-dichlorophenolindophenol sodium salt (DCIP) (#D1878, Sigma-Aldrich) in enzyme buffer (50 mM Tris-HCl pH 8.0, 0.1% Triton X-100, 150 mM KCl). A stock solution of 20 mM DCIP was prepared in enzyme buffer and filtered through Whatman paper just before use. Reactions were performed in a total volume of 100 μL, consisting of 1 μL of compound, 49 μL of enzyme and 50 μL of reaction mixture. Loss in absorbance by chromogen DCIP was measured at 595 nm following a 70 minute incubation at 32° C.

[1] = MOLM-13, 72 hours, bins ≥10 nM-<100 nM and <10 nM
[2] = bin ≥1 μM-<10 μM, read-out: IC50 DHODH inhibition activity
[3] = bins ≥10 nM-<100 nM and <10 nM, read-out: IC50 DHODH inhibition activity

Structure (SMILES)	IC50 (MOLM-13 cells; [1]) [nM]	IC50 (recombinant human DHODH; [3]) [nM]	other results
COc1cccc(-n2ncc3c2COC[C@H]3NC(=O)c2cc(C)c(C)cn2)c1Cl	10 to 100	–	–
O=C(N[C@H]1COCc2c1cnn2-c1ccccc1F)c1ncn2c1CCCC2 (single isomer, unassigned) [Ex-2]	–	–	IC50 (recombinant human DHODH; [2]): 1000 to 10000 nM
O=C(N[C@H]1COCc2c1cnn2-c1ccccc1F)c1ncc2n1CCCC2 (single isomer, unassigned) [Ex-5]	–	–	IC50 (recombinant human DHODH; [2]): 1000 to 10000 nM
O=C(N[C@H]1COCc2c1cnn2-c1c(Cl)cccc1Cl)c1ncn2c1CCCC2 (single isomer, unassigned) [Ex-12]	10 to 100	–	–
Cc1cccc(-n2ncc3c2COC[C@H]3NC(=O)c2ncn3c2CCCC3)c1Cl [Ex-14, (S)—N-(1-(2-chloro-3-methylphenyl)-1,4,5,7-tetrahydropyrano[3,4-c]pyrazol-4-yl)-5,6,7,8-tetrahydroimidazo[1,5-a]pyridine-1-carboxamide]	–	< 10	IC50 (MOLM-13 cells; MOLM-13, 72 h): < 10 nM
CCc1c(C(=O)N[C@@H]2COCc3c2cnn3-c2cccc(C)c2Cl)ncn1C [Ex-15, (S)—N-(1-(2-chloro-3-methylphenyl)-1,4,5,7-tetrahydropyrano[3,4-c]pyrazol-4-yl)-5-ethyl-1-methyl-1H-imidazole-4-carboxamide]	< 10	< 10	–
Cc1cccc(-n2ncc3c2COC[C@H]3NC(=O)c2ncc3n2CCCC3)c1Cl [Ex-16, (S)—N-(1-(2-chloro-3-methylphenyl)-1,4,5,7-tetrahydropyrano[3,4-c]pyrazol-4-yl)-5,6,7,8-tetrahydroimidazo[1,5-a]pyridine-3-carboxamide]	< 10	< 10	–
Cc1cccc(-n2ncc3c2COC[C@H]3NC(=O)c2n[nH]c3c2CCCC3)c1Cl [Ex-17, (S)—N-(1-(2-chloro-3-methylphenyl)-1,4,5,7-tetrahydropyrano[3,4-c]pyrazol-4-yl)-4,5,6,7-tetrahydro-1H-indazole-3-carboxamide]	10 to 100	10 to 100	–
Cc1cccc(-n2ncc3c2COC[C@H]3NC(=O)c2noc3c2CCCC3)c1Cl [Ex-18, (S)—N-(1-(2-chloro-3-methylphenyl)-1,4,5,7-tetrahydropyrano[3,4-c]pyrazol-4-yl)-4,5,6,7-tetrahydrobenzo[d]isoxazole-3-carboxamide]	< 10	< 10	–
CCc1c(C(=O)N[C@@H]2COCc3c2cnn3-c2cccc(C)c2Cl)n[nH]c1C [Ex-19, (S)—N-(1-(2-chloro-3-methylphenyl)-1,4,5,7-tetrahydropyrano[3,4-c]pyrazol-4-yl)-4-ethyl-5-methyl-1H-pyrazole-3-carboxamide]	10 to 100	10 to 100	–
COc1cccc(-n2ncc3c2COC[C@H]3NC(=O)c2ncn3c2CCCC3)c1Cl [Ex-21, (S)—N-(1-(2-chloro-3-methoxyphenyl)-1,4,5,7-tetrahydropyrano[3,4-c]pyrazol-4-yl)-5,6,7,8-tetrahydroimidazo[1,5-a]pyridine-1-carboxamide]	–	< 10	IC50 (MOLM-13 cells; MOLM-13, 72 h): < 10 nM
CCc1c(C(=O)N[C@@H]2COCc3c2cnn3-c2cccc(OC)c2Cl)ncn1C [Ex-22, (S)—N-(1-(2-chloro-3-methoxyphenyl)-1,4,5,7-tetrahydropyrano[3,4-c]pyrazol-4-yl)-5-ethyl-1-methyl-1H-imidazole-4-carboxamide]	< 10	< 10	–
COc1cccc(-n2ncc3c2COC[C@H]3NC(=O)c2n[nH]c3c2CCCC3)c1Cl [Ex-24, (S)—N-(1-(2-chloro-3-methoxyphenyl)-1,4,5,7-tetrahydropyrano[3,4-c]pyrazol-4-yl)-4,5,6,7-tetrahydro-1H-indazole-3-carboxamide]	< 10	10 to 100	–
COc1cccc(-n2ncc3c2COC[C@H]3NC(=O)c2noc3c2CCCC3)c1Cl [Ex-25, (S)—N-(1-(2-chloro-3-methoxyphenyl)-1,4,5,7-tetrahydropyrano[3,4-c]pyrazol-4-yl)-4,5,6,7-tetrahydrobenzo[d]isoxazole-3-carboxamide]	< 10	10 to 100	–
CCc1c(C(=O)N[C@@H]2COCc3c2cnn3-c2cccc(OC)c2Cl)n[nH]c1C [Ex-26, (S)—N-(1-(2-chloro-3-methoxyphenyl)-1,4,5,7-tetrahydropyrano[3,4-c]pyrazol-4-yl)-4-ethyl-5-methyl-1H-pyrazole-3-carboxamide]	< 10	< 10	–
CCc1c(C(=O)N[C@@H]2COCc3c2cnn3-c2c(F)ccc(OC)c2Cl)ncn1C [Ex-28, (S)—N-(1-(2-chloro-6-fluoro-3-methoxyphenyl)-1,4,5,7-tetrahydropyrano[3,4-c]pyrazol-4-yl)-5-ethyl-1-methyl-1H-imidazole-4-carboxamide]	< 10	< 10	–
COc1ccc(F)c(-n2ncc3c2COC[C@H]3NC(=O)c2ncc3n2CCCC3)c1Cl [Ex-29, (S)—N-(1-(2-chloro-6-fluoro-3-methoxyphenyl)-1,4,5,7-tetrahydropyrano[3,4-c]pyrazol-4-yl)-5,6,7,8-tetrahydroimidazo[1,5-a]pyridine-3-carboxamide]	< 10	< 10	–
COc1ccc(F)c(-n2ncc3c2COC[C@H]3NC(=O)c2n[nH]c3c2CCCC3)c1Cl [Ex-30, (S)—N-(1-(2-chloro-6-fluoro-3-methoxyphenyl)-1,4,5,7-tetrahydropyrano[3,4-c]pyrazol-4-yl)-4,5,6,7-tetrahydro-1H-indazole-3-carboxamide]	< 10	10 to 100	–
COc1ccc(F)c(-n2ncc3c2COC[C@H]3NC(=O)c2noc3c2CCCC3)c1Cl [Ex-31, (S)—N-(1-(2-chloro-6-fluoro-3-methoxyphenyl)-1,4,5,7-tetrahydropyrano[3,4-c]pyrazol-4-yl)-4,5,6,7-tetrahydrobenzo[d]isoxazole-3-carboxamide]	–	–	IC50 (recombinant human DHODH; read-out: IC50 DHODH inhibition activity): < 10 nM; IC50 (MOLM-13 cells; MOLM-13, 72 h): < 10 nM
CCc1c(C(=O)N[C@@H]2COCc3c2cnn3-c2c(F)ccc(OC)c2Cl)n[nH]c1C [Ex-32, (S)—N-(1-(2-chloro-6-fluoro-3-methoxyphenyl)-1,4,5,7-tetrahydropyrano[3,4-c]pyrazol-4-yl)-4-ethyl-5-methyl-1H-pyrazole-3-carboxamide]	–	10 to 100	IC50 (MOLM-13 cells; MOLM-13, 72 h): < 10 nM
COc1ccc(F)c(-n2ncc3c2COC[C@H]3NC(=O)c2cc(C)c(C)cn2)c1Cl [Ex-33, (S)—N-(1-(2-chloro-6-fluoro-3-methoxyphenyl)-1,4,5,7-tetrahydropyrano[3,4-c]pyrazol-4-yl)-4,5-dimethylpicolinamide]	10 to 100	10 to 100	–
CCc1c(C(=O)N[C@@H]2COCc3c2cnn3-c2c(C)cccc2Cl)ncn1C [Ex-35, (S)—N-(1-(2-chloro-6-methylphenyl)-1,4,5,7-tetrahydropyrano[3,4-c]pyrazol-4-yl)-5-ethyl-1-methyl-1H-imidazole-4-carboxamide]	< 10	< 10	–
Cc1cnc(C(=O)N[C@@H]2COCc3c2cnn3-c2c(C)cccc2Cl)cc1C [Ex-40, (S)—N-(1-(2-chloro-6-methylphenyl)-1,4,5,7-tetrahydropyrano[3,4-c]pyrazol-4-yl)-4,5-dimethylpicolinamide]	10 to 100	–	–
CS(=O)(=O)c1cccc(-n2ncc3c2COC[C@H]3NC(=O)c2ncn3c2CCCC3)c1 [Ex-49, (S)—N-(1-(3-(methylsulfonyl)phenyl)-1,4,5,7-tetrahydropyrano[3,4-c]pyrazol-4-yl)-5,6,7,8-tetrahydroimidazo[1,5-a]pyridine-1-carboxamide]	–	–	IC50 (recombinant human DHODH; [2]): 1000 to 10000 nM
CN(C)CCOc1cccc(-n2ncc3c2COC[C@H]3NC(=O)c2ncn3c2CCCC3)c1Cl [Ex-63, (S)—N-(1-(2-chloro-3-(2-(dimethylamino)ethoxy)phenyl)-1,4,5,7-tetrahydropyrano[3,4-c]pyrazol-4-yl)-5,6,7,8-tetrahydroimidazo[1,5-a]pyridine-1-carboxamide]	–	–	IC50 (recombinant human DHODH): 10 to 100 nM
CNC(=O)COc1cccc(-n2ncc3c2COC[C@H]3NC(=O)c2ncn3c2CCCC3)c1Cl [Ex-65, (S)—N-(1-(2-chloro-3-(2-(methylamino)-2-oxoethoxy)phenyl)-1,4,5,7-tetrahydropyrano[3,4-c]pyrazol-4-yl)-5,6,7,8-tetrahydroimidazo[1,5-a]pyridine-1-carboxamide]	–	–	IC50 (recombinant human DHODH): 10 to 100 nM
CC(=O)NCCOc1cccc(-n2ncc3c2COC[C@H]3NC(=O)c2ncn3c2CCCC3)c1Cl [Ex-66, (S)—N-(1-(3-(2-acetamidoethoxy)-2-chlorophenyl)-1,4,5,7-tetrahydropyrano[3,4-c]pyrazol-4-yl)-5,6,7,8-tetrahydroimidazo[1,5-a]pyridine-1-carboxamide]	–	–	IC50 (recombinant human DHODH): 10 to 100 nM
CN(C)C(=O)c1cccc(-n2ncc3c2COC[C@H]3NC(=O)c2ncn3c2CCCC3)c1Cl [Ex-70, (S)—N-(1-(2-chloro-3-(dimethylcarbamoyl)phenyl)-1,4,5,7-tetrahydropyrano[3,4-c]pyrazol-4-yl)-5,6,7,8-tetrahydroimidazo[1,5-a]pyridine-1-carboxamide]	–	–	IC50 (MOLM-13 cells; MOLM-13, 72 h): 10 to 100 nM
